The source of these data is patent EP0115690A1, “Dibenzocycloheptenylidenes” (AMERICAN HOME PRODUCTS CORPORATION, priority 1983, dated 1984).

The subject of one assay is carrageenan paw edema. The experiment in a line: rat carrageenan edema test (hind paw). It counts as in vivo, male Sprague-Dawley rats. Particulars: for % Change From Control: paw edema 3 hours after carrageenan; for ED50: Rattus norvegicus, po, 3 h, read-out: dose exhibiting a 50% inhibition of edema. The procedure: Groups of 6-8 male Sprague-Dawley rats weighing between 150-200 grams are used. Compounds of the invention, aspirin and indomethacin are administered orally in 0.5% methylcellulose. Vehicle alone is administered as a control. Sixty minutes after drug administration edema is induced by injection of 0.1 ml. of a 1% carrageenan solution in saline into the subplantar tissue of the rat's right hind paw. Two minutes later, paw volume is measured volumetrically with a plethysmograph and again 3 hours later. The mean volume of swelling for the control group is calculated and compared to the test groups. Percent change in paw edema is calculated and analysed statistically (unpaired, Student's t-test).
(Carrageenan injected into the paw causes an acute inflammation.)

The test system of assay [1] is adjuvant arthritis (left paw edema). The experiment in a line: rat adjuvant arthritis (daily dosing) assay. Format: in vivo, Sprague-Dawley rats. Particulars: for % Change of Left Paw Edema at Day 16: daily regimen; for ED50: Rattus norvegicus, po, 384 h, read-out: estimated ED50. The protocol: The ability of the compounds of the invention to inhibit immunologic-induced (chronic) inflammation is tested in adjuvant arthritis (daily dosing) assay.
Polyarthritis is induced in groups of 6-10 Sprague-Dawley rats weighing between 180-220 g. by a subcutaneous injection into the right paw of dessicated Mycobacterium butyricum or tuberculosis (0.5 mg/0.1 ml) suspended in light mineral oil. Compounds of the invention, aspirin and indomethacin are administered orally in 0.5% methylcellulose using a daily regimen (except for weekends). Both hind paw volumes (ml.) are measured by mercury plethysmograph on day 0 or at the time of injection of the complete adjuvant. Increases in paw volume (viz. edema) are determined for the left paw on day 16. Statistical analysis of differences in paw edemas is performed by using the unpaired, Student's t-test.

Assay [2] is described as follows: anti-inflammatory activity, comparison of isomers (test not specified). Format: in vivo. To be noted: E-isomer versus Z-isomer.

Regarding `O=C(O)/C=C1/c2ccccc2C=Cc2ccc(Cl)cc21` [Example 1G, Z-(3-Chloro-5H-dibenzo[a,d]cyclohepten-5-ylidene) acetic acid], the “% Change From Control” value in the assay on carrageenan paw edema (oral dose 100-200 mg/kg) is given as -20%. The “% Change of Left Paw Edema at Day 16” value in assay [1] (oral dose 25 mg/kg) was -28%.
`O=C(O)/C=C1\c2ccccc2C=Cc2ccc(Cl)cc21` [Example 1H]: the “oral doses that inhibit carrageenan paw edema” value in the assay with carrageenan paw edema lay within 20 to 200 mg/kg. Also, the “% Change From Control” value is reported as -33% in the assay with carrageenan paw edema (oral dose 20 mg/kg), -53% with carrageenan paw edema (oral dose 60 mg/kg) and -68% with carrageenan paw edema (oral dose 180 mg/kg). Besides, the “% Change of Left Paw Edema at Day 16” value in assay [1] (oral dose 25 mg/kg) was -59%. Further, the “anti-inflammatory activity relative to its Z-isomer” value in assay [2] is given as “several times more active”.
With `O=C(O)/C=C1/c2ccccc2C=Cc2cc(Cl)ccc21` [Example 2G], the “% Change From Control” value with carrageenan paw edema (oral dose 200 mg/kg) is on record as approximately -38%.
Turning to `O=C(O)/C=C1\c2ccccc2C=Cc2cc(Cl)ccc21` [Example 2H], the “% Change From Control” value with carrageenan paw edema (oral dose 200 mg/kg) was -49%. The “% Change of Left Paw Edema at Day 16” value in assay [1] (oral dose 25 mg/kg) is recorded as -59%.
Regarding `COc1ccc2c(c1)C(=CC(=O)O)c1ccccc1C=C2` [Example 4F, (3-Methoxy-5H-dibenzo[a,d]cyclohepten-5-ylidene)acetic acid], the “% Change From Control” value with carrageenan paw edema (oral dose >200 mg/kg) is recorded as -50%. Moreover, the “% Change of Left Paw Edema at Day 16” value in assay [1] (oral dose 15 mg/kg) is -50%.
As to `O=C(O)C(Cl)=C1c2ccccc2C=Cc2ccccc21` [Example 6E], the “% Change From Control” value in the assay on carrageenan paw edema (oral dose 200 mg/kg) was -31%.
Still for that read-out and setting: then `C1=Cc2ccccc2C(=Cc2nnn[nH]2)c2ccccc21` [Example 7B, 5-(5H-Dibenzo[a,d]cyclohepten-5-ylidenemethyl) 1H-tetrazole], with approximately -38%.
For `O=C(O)C=C1c2ccccc2C=C(Br)c2ccccc21` [Example 8, E- and Z-(10-bromo-5H-dibenzo[a,d]cyclohepten-5-ylidene) acetic acid], the “% Change From Control” value in the assay with carrageenan paw edema (oral dose 200 mg/kg) is recorded as -34%. For the same molecule, in assay [1] (oral dose 25-50 mg/kg), the “% Change of Left Paw Edema at Day 16” value is recorded as -25 to -50%.
Turning to `O=C(O)C=C1c2ccccc2C=Cc2ccc(F)cc21` [Example 9], the “oral doses that inhibit carrageenan paw edema” value in the assay on carrageenan paw edema was 20 to 200 mg/kg. The “% Change From Control” value with carrageenan paw edema (oral dose 200 mg/kg) was -58%. The “% Change of Left Paw Edema at Day 16” value in assay [1] (oral dose 100-200 mg/kg) is -40%.
As to `COc1ccc2c(c1)c(CC(=O)O)c(C)n2C(=O)c1ccc(Cl)cc1` [Indomethacin, reference compound], the ED50 was approximately 5.6 mg/kg in the assay with carrageenan paw edema and 0.9 mg/kg in assay [1].
Take `CC(=O)Oc1ccccc1C(=O)O` [aspirin, reference compound]: the ED50 in the assay with carrageenan paw edema was approximately 250 mg/kg; in assay [1], approximately 140 mg/kg.
